Source: patent US20130296413A1, “N-DESMETHYL-DOXEPIN AND METHODS OF USING THE SAME TO TREAT SLEEP DISORDERS” (Procom One, Inc., priority 2006, published 2013)

Legend:
[1] = system: patient suffering from chronic insomnia; assay: Treatment of a patient with chronic insomnia; assay type: in vivo, human
Description: A patient suffers from chronic insomnia. The patient is otherwise healthy with normal affect with no depression, anxiety or substance overuse. The patient is prescribed desmethyldoxepin in a daily dosage of 2 milligrams prior to bedtime.
A patient suffers from chronic insomnia. The patient also suffers from depression. The patient is prescribed desmethyldoxepin in a daily dosage of 1 milligram prior to bedtime.
A patient suffers from chronic insomnia. The patient also suffers from depression. The patient is prescribed desmethyldoxepin in a daily dosage of 2 milligrams prior to bedtime.
A patient suffers from chronic insomnia. The patient is otherwise healthy with normal affect with no depression, anxiety or substance overuse. The patient is prescribed desmethyldoxepin in a daily dosage of 5 milligrams prior to bedtime.
A patient suffers from chronic insomnia. The patient also suffers from depression. The patient is prescribed desmethyldoxepin in a daily dosage of 5 milligrams prior to bedtime.
A patient suffers from chronic insomnia. The patient is otherwise healthy with normal affect with no depression, anxiety or substance overuse. The patient is prescribed desmethyldoxepin in a daily dosage of 10 milligrams prior to bedtime.
A patient suffers from chronic insomnia. The patient also suffers from depression. The patient is prescribed desmethyldoxepin in a daily dosage of 10 milligrams prior to bedtime.
A patient suffers from chronic insomnia. The patient is otherwise healthy with normal affect with no depression, anxiety or substance overuse. The patient is prescribed desmethyldoxepin in a daily dosage of 20 milligrams prior to bedtime.
A patient suffers from chronic insomnia. The patient also suffers from depression. The patient is prescribed desmethyldoxepin in a daily dosage of 20 milligrams prior to bedtime.
A patient suffers from chronic insomnia. The patient is otherwise healthy with normal affect with no depression, anxiety or substance overuse. The patient is prescribed desmethyldoxepin in a daily dosage of 150 milligrams prior to bedtime.
A patient suffers from chronic insomnia. The patient also suffers from depression. The patient is prescribed desmethyldoxepin in a daily dosage of 150 milligrams prior to bedtime.

[2] = system: patient suffering from transient or short term insomnia; assay: Treatment of a patient with transient or short term insomnia; assay type: in vivo, human
Description: A patient suffers from transient or short term insomnia. The patient is otherwise healthy with normal affect with no depression, anxiety or substance overuse. The patient is prescribed desmethyldoxepin in a daily dosage of 1 milligram, prior to bedtime.
A patient suffers from transient or short term insomnia. The patient is otherwise healthy with normal affect with no depression, anxiety or substance overuse. The patient is prescribed desmethyldoxepin in a daily dosage of 2 milligrams, prior to bedtime.
A patient suffers from transient or short term insomnia. The patient also suffers from depression. The patient is prescribed desmethyldoxepin in a daily dosage of 2 milligrams, prior to bedtime.
A patient suffers from transient or short term insomnia. The patient is otherwise healthy with normal affect with no depression, anxiety or substance overuse. The patient is prescribed desmethyldoxepin in a daily dosage of 5 milligrams, prior to bedtime.
A patient suffers from transient or short term insomnia. The patient also suffers from depression. The patient is prescribed desmethyldoxepin in a daily dosage of 5 milligrams, prior to bedtime.
A patient suffers from transient or short term insomnia. The patient is otherwise healthy with normal affect with no depression, anxiety or substance overuse. The patient is prescribed desmethyldoxepin in a daily dosage of 10 milligrams, prior to bedtime.
A patient suffers from transient or short term insomnia. The patient also suffers from depression. The patient is prescribed desmethyldoxepin in a daily dosage of 10 milligrams, prior to bedtime.
A patient suffers from transient or short term insomnia. The patient is otherwise healthy with normal affect with no depression, anxiety or substance overuse. The patient is prescribed desmethyldoxepin in a daily dosage of 20 milligrams prior to bedtime.
A patient suffers from transient or short term insomnia. The patient also suffers from depression. The patient is prescribed desmethyldoxepin in a daily dosage of […] prior to bedtime.
A patient suffers from transient or short term insomnia. The patient is otherwise healthy with normal affect with no depression, anxiety or substance overuse. The patient is prescribed desmethyldoxepin in a daily dosage of 150 milligrams prior to bedtime.
A patient suffers from transient or short term insomnia. The patient also suffers from depression. The patient is prescribed desmethyldoxepin in a daily dosage of 150 milligrams prior to bedtime.

[3] = daily dosage of 2 milligrams prior to bedtime, patient also suffers from depression
[4] = daily dosage of 2 milligrams prior to bedtime, patient otherwise healthy, no depression, anxiety or substance overuse
[5] = daily dosage of 5 milligrams prior to bedtime, patient also suffers from depression
[6] = daily dosage of 5 milligrams prior to bedtime, patient otherwise healthy, no depression, anxiety or substance overuse
[7] = daily dosage of 10 milligrams prior to bedtime, patient also suffers from depression
[8] = daily dosage of 10 milligrams prior to bedtime, patient otherwise healthy, no depression, anxiety or substance overuse
[9] = daily dosage of 20 milligrams prior to bedtime, patient otherwise healthy, no depression, anxiety or substance overuse
[10] = daily dosage of 150 milligrams prior to bedtime, patient also suffers from depression
[11] = daily dosage of 150 milligrams prior to bedtime, patient otherwise healthy, no depression, anxiety or substance overuse

Measured: relief of insomnia

CNCC/C=C1/c2ccccc2COc2ccccc21 [desmethyldoxepin, Desmethyldoxepin]
relieves the insomnia: [1]; daily dosage of 1 milligram prior to bedtime, patient also suffers from depression | [1]; [3] | [1]; [4] | [1]; [5] | [1]; [6] | [1]; [7] | [1]; [8] | [1]; daily dosage of 20 milligrams prior to bedtime, patient also suffers from depression | [1]; [9] | [1]; [10] | [1]; [11] | [2]; daily dosage of 1 milligram prior to bedtime, patient otherwise healthy, no depression, anxiety or substance overuse | [2]; [3] | [2]; [4] | [2]; [5] | [2]; [6] | [2]; [7] | [2]; [8] | [2]; [9] | [2]; daily dosage of 20 prior to bedtime, patient also suffers from depression | [2]; [10] | [2]; [11]
